Key:
eastern black nightshade = test: Test C pre-/postemergence herbicide test; assay type: in vivo, Solanum ptycanthum; conditions: for Plant response rating, Nightshade / Plant response rating (0 = no effect, 100 = complete control), Nightshade: preemergence
Method in brief: (§1)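 Greenhouse-grown plants were evaluated visually 12 to 14 days after treatment, with 100 meaning complete control and 0 no effect. Application was preemergence, or postemergence at 2 to 18 cm.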

lambsquarters = test: Test C pre-/postemergence herbicide test; assay type: in vivo, Chenopodium album; conditions: for Plant response rating, Lambsquarters / Plant response rating (0 = no effect, 100 = complete control), Lambsquarters: preemergence
Method in brief: as §1

[1] = test system: common (oilseed) sunflower; test: Test C pre-/postemergence herbicide test; assay type: in vivo, Helianthus annuus; conditions: for Plant response rating, Sunflower / Plant response rating (0 = no effect, 100 = complete control), Sunflower: preemergence
Method in brief: as §1

large crabgrass = test: Test C pre-/postemergence herbicide test; assay type: in vivo, Digitaria sanguinalis; conditions: for Plant response rating, Crabgrass, Large / Plant response rating (0 = no effect, 100 = complete control), Crabgrass, Large: preemergence
Method in brief: as §1

[2] = test system: smallflower umbrella sedge; test: Test C flooded paddy test; assay type: in vivo, Cyperus difformis
barnyardgrass = test: Test C flooded paddy test; assay type: in vivo, Echinochloa crus-galli
Method in brief: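 After a postemergence application at 1 to 4 leaves (plants 2–18 cm high), or at 2 leaves for barnyardgrass in flooded paddy, plants stayed in the greenhouse for 12 to 14 days. Damage was then judged visually relative to control plants, with 100 indicating complete control.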

pigweed = test: Test C pre-/postemergence herbicide test; assay type: in vivo, Amaranthus retroflexus; conditions: for Plant response rating, Pigweed / Plant response rating (0 = no effect, 100 = complete control), Pigweed: preemergence
Method in brief: as §1

ducksalad = test: Test C flooded paddy test; assay type: in vivo, Heteranthera limosa
common ragweed = test: Test C pre-/postemergence herbicide test; assay type: in vivo, Ambrosia elatior; set-up: key to Plant response rating, Ragweed: 0 = no effect, 100 = complete control; conditions: for Plant response rating, Ragweed / Plant response rating (0 = no effect, 100 = complete control), Ragweed: preemergence
Method in brief: as §1

velvetleaf = test: Test C pre-/postemergence herbicide test; assay type: in vivo, Abutilon theophrasti; conditions: for Plant response rating, Velvetleaf / Plant response rating (0 = no effect, 100 = complete control), Velvetleaf: preemergence
Method in brief: as §1

corn = test: Test C pre-/postemergence herbicide test; assay type: in vivo, Zea mays; conditions: for Plant response rating, Corn / Plant response rating (0 = no effect, 100 = complete control), Corn: preemergence
Method in brief: as §1

cocklebur = test: Test C pre-/postemergence herbicide test; assay type: in vivo, Xanthium strumarium; conditions: for Plant response rating, Cocklebur / Plant response rating (0 = no effect, 100 = complete control), Cocklebur: preemergence
Method in brief: as §1

[3] = 500 g ai/ha, scale 0 to 100 (0 no effect, 100 complete control), visual, 12 to 14 days
[4] = 125 g ai/ha, scale 0 to 100 (0 no effect, 100 complete control)
[5] = 250 g ai/ha, scale of 0 to 100, 0 is no effect, 100 is complete control
[6] = 500 g ai/ha, visual rating after 12 to 14 days, scale 0 to 100 (0 no effect, 100 complete control)
[7] = 62 g ai/ha, scale 0 to 100 (0 no effect, 100 complete control)
[8] = 125 g ai/ha, scale 0 (no effect) to 100 (complete control), visual, 12 to 14 days
[9] = 250 g ai/ha, scale 0 to 100 (0 no effect, 100 complete control), visual, 12 to 14 days
[10] = Preemergence, 500 g ai/ha, scale 0 to 100, 0 no effect, 100 complete control
[11] = 125 g ai/ha, scale of 0 to 100, 0 is no effect, 100 is complete control

## CCC1=NN(C(C)(C)C)CC1C(=O)Nc1cc(C(=O)N(C)C)ccc1F (racemic) [Compound 343]
Eastern black nightshade; 62 g ai/ha, scale 0 to 100
  Plant response rating, Nightshade: 60
Eastern black nightshade; 125 g ai/ha
  Plant response rating (0 = no effect, 100 = complete control), Nightshade: 60
Eastern black nightshade; 250 g ai/ha, scale 0-100
  Plant response rating, Nightshade: 90
Eastern black nightshade; [3]
  Plant response rating, Nightshade: 95
lambsquarters; 62 g ai/ha, scale 0 to 100
  Plant response rating, Lambsquarters: 100
lambsquarters; 125 g ai/ha
  Plant response rating (0 = no effect, 100 = complete control), Lambsquarters: 100
lambsquarters; 250 g ai/ha, scale 0-100
  Plant response rating, Lambsquarters: 100
lambsquarters; [3]
  Plant response rating, Lambsquarters: 100
[1]; 62 g ai/ha, scale 0 to 100
  Plant response rating, Sunflower: 10
[1]; 125 g ai/ha
  Plant response rating (0 = no effect, 100 = complete control), Sunflower: 75
[1]; 250 g ai/ha, scale 0-100
  Plant response rating, Sunflower: 80
[1]; [3]
  Plant response rating, Sunflower: 100
Large crabgrass; 62 g ai/ha, scale 0 to 100
  Plant response rating, Crabgrass, Large: 50
Large crabgrass; 125 g ai/ha
  Plant response rating (0 = no effect, 100 = complete control), Crabgrass, Large: 80
Large crabgrass; 250 g ai/ha, scale 0-100
  Plant response rating, Crabgrass, Large: 80
Large crabgrass; [3]
  Plant response rating, Crabgrass, Large: 100
[2]; 62 g ai/ha, scale 0 to 100
  Sedge, Umbrella plant response rating: 20
[2]; [4]
  Sedge, Umbrella plant response rating: 40
[2]; [5]
  Sedge, Umbrella plant response rating: 80
[2]; [6]
  Plant response rating, Sedge, Umbrella: 90
barnyardgrass; [7]
  Barnyardgrass plant response rating: 20
barnyardgrass; [4]
  Barnyardgrass plant response rating: 20
barnyardgrass; [5]
  Barnyardgrass plant response rating: 60
barnyardgrass; [6]
  Plant response rating, Barnyardgrass: 80
pigweed; 62 g ai/ha, scale 0 to 100
  Plant response rating, Pigweed: 80
pigweed; 125 g ai/ha
  Plant response rating (0 = no effect, 100 = complete control), Pigweed: 90
pigweed; 250 g ai/ha, scale 0-100
  Plant response rating, Pigweed: 100
pigweed; [3]
  Plant response rating, Pigweed: 100
ducksalad; 62 g ai/ha, scale 0 to 100
  Ducksalad plant response rating: 40
ducksalad; [4]
  Ducksalad plant response rating: 80
ducksalad; [5]
  Ducksalad plant response rating: 90
ducksalad; [6]
  Plant response rating, Ducksalad: 90
Common ragweed; 62 g ai/ha, scale 0 to 100
  Plant response rating, Ragweed: 70
Common ragweed; 125 g ai/ha
  Plant response rating (0 = no effect, 100 = complete control), Ragweed: 90
Common ragweed; 250 g ai/ha, scale 0-100
  Plant response rating, Ragweed: 90
Common ragweed; [3]
  Plant response rating, Ragweed: 100
velvetleaf; 62 g ai/ha, scale 0 to 100
  Plant response rating, Velvetleaf: 60
velvetleaf; 125 g ai/ha
  Plant response rating (0 = no effect, 100 = complete control), Velvetleaf: 80
velvetleaf; 250 g ai/ha, scale 0-100
  Plant response rating, Velvetleaf: 100
velvetleaf; [3]
  Plant response rating, Velvetleaf: 100
corn; 62 g ai/ha, scale 0 to 100
  Plant response rating, Corn: 40
corn; 125 g ai/ha
  Plant response rating (0 = no effect, 100 = complete control), Corn: 70
corn; 250 g ai/ha, scale 0-100
  Plant response rating, Corn: 70
corn; [3]
  Plant response rating, Corn: 80
cocklebur; 62 g ai/ha, scale 0 to 100
  Plant response rating, Cocklebur: 30
cocklebur; 125 g ai/ha
  Plant response rating (0 = no effect, 100 = complete control), Cocklebur: 80
cocklebur; 250 g ai/ha, scale 0-100
  Plant response rating, Cocklebur: 80
cocklebur; [3]
  Plant response rating, Cocklebur: 100

## CCN(C)C(=O)c1cccc(NC(=O)c2cc(C(C)(C)C)nn2CC)c1 [Compound 48]
Eastern black nightshade; 62 g ai/ha
  Plant response rating (0 = no effect, 100 = complete control), Nightshade: 50
Eastern black nightshade; [8]
  Plant response rating, Nightshade: 80
Eastern black nightshade; [9]
  Plant response rating, Nightshade: 95
Eastern black nightshade; [10]
  Nightshade plant response rating: 100
lambsquarters; 62 g ai/ha
  Plant response rating (0 = no effect, 100 = complete control), Lambsquarters: 85
lambsquarters; [8]
  Plant response rating, Lambsquarters: 95
lambsquarters; [9]
  Plant response rating, Lambsquarters: 95
lambsquarters; [10]
  Lambsquarters plant response rating: 95
[1]; 62 g ai/ha
  Plant response rating (0 = no effect, 100 = complete control), Sunflower: 0
[1]; [8]
  Plant response rating, Sunflower: 0
[1]; [9]
  Plant response rating, Sunflower: 0
[1]; [10]
  Sunflower plant response rating: 0
Large crabgrass; 62 g ai/ha
  Plant response rating (0 = no effect, 100 = complete control), Crabgrass, Large: 0
Large crabgrass; [8]
  Plant response rating, Crabgrass, Large: 30
Large crabgrass; [9]
  Plant response rating, Crabgrass, Large: 70
Large crabgrass; [10]
  Crabgrass, Large plant response rating: 90
[2]; 16 g ai/ha, scale 0 to 100
  Sedge, Umbrella plant response rating: 0
[2]; 31 g ai/ha, scale 0 to 100
  Sedge, Umbrella plant response rating: 0
[2]; [7]
  Sedge, Umbrella plant response rating: 60
[2]; [11]
  Sedge, Umbrella plant response rating: 60
barnyardgrass; 16 g ai/ha, scale 0 to 100
  Barnyardgrass plant response rating: 0
barnyardgrass; 31 g ai/ha, scale 0 to 100
  Barnyardgrass plant response rating: 0
barnyardgrass; [7]
  Barnyardgrass plant response rating: 0
barnyardgrass; [11]
  Barnyardgrass plant response rating: 0
pigweed; 62 g ai/ha
  Plant response rating (0 = no effect, 100 = complete control), Pigweed: 100
pigweed; [8]
  Plant response rating, Pigweed: 100
pigweed; [9]
  Plant response rating, Pigweed: 100
pigweed; [10]
  Pigweed plant response rating: 100
ducksalad; 16 g ai/ha, scale 0 to 100
  Ducksalad plant response rating: 0
ducksalad; 31 g ai/ha, scale 0 to 100
  Ducksalad plant response rating: 0
ducksalad; [7]
  Ducksalad plant response rating: 20
ducksalad; [11]
  Ducksalad plant response rating: 40
Common ragweed; 62 g ai/ha
  Plant response rating (0 = no effect, 100 = complete control), Ragweed: 0
Common ragweed; [8]
  Plant response rating, Ragweed: 5
Common ragweed; [9]
  Plant response rating, Ragweed: 70
Common ragweed; [10]
  Ragweed plant response rating: 100
velvetleaf; 62 g ai/ha
  Plant response rating (0 = no effect, 100 = complete control), Velvetleaf: 0
velvetleaf; [8]
  Plant response rating, Velvetleaf: 0
velvetleaf; [9]
  Plant response rating, Velvetleaf: 10
velvetleaf; [10]
  Velvetleaf plant response rating: 70
corn; 62 g ai/ha
  Plant response rating (0 = no effect, 100 = complete control), Corn: 0
corn; [8]
  Plant response rating, Corn: 0
corn; [9]
  Plant response rating, Corn: 0
corn; [10]
  Corn plant response rating: 0
cocklebur; 62 g ai/ha
  Plant response rating (0 = no effect, 100 = complete control), Cocklebur: 0
cocklebur; [8]
  Plant response rating, Cocklebur: 0
cocklebur; [9]
  Plant response rating, Cocklebur: 0
cocklebur; [10]
  Cocklebur plant response rating: 10
